# Measurements reported in patent US8470889B2 (TRT Pharma Inc., priority 2008, dated 2013).
# Read-outs that look alike come from different tables or passages of the source.
# How the values were obtained:
# C4-2B cells = experiment: MTT cell growth inhibition, C4-2B;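 also: cells treated with a dilution series for 72 h, then MTT added and absorbance read at 600 nm, IC50 fitted from dose-response curves by nonlinear regression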
# 22Rv1 cells = experiment: MTT cell growth inhibition, 22Rv1; conditions: MTT
# LNCaP cells = experiment: MTT cell growth inhibition, LNCaP;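 also: MTT formazan absorbance at 600 nm read after 72 h of compound exposure, IC50 fitted by nonlinear regression of dose-response curves, samples run in triplicate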
# Description: (§1) MDA PCa 2b was seeded at the same density in medium BRFF-HPC1 (Athena Enzyme Systems, Baltimore, Md., USA) supplemented with 20% FBS. After overnight incubation, the medium was changed to a fresh medium containing different concentrations of test compounds diluted from stock DMSO solution. The final concentration of DMSO is 0.5%. After 72 h of incubation with test compounds, 20 μL of 3-(4,5-dimethyl thiazol-2-yl)-2,5-diphenyltetrazolium bromide (MTT) solution (5 mg/mL in PBS) were added to each well and incubated further for 2 h. Next, the supernatant was aspirated and the MTT formazan formed by metabolically viable cells was dissolved in 100 μL of isopropanol. The plates were mixed for 30 min, and the absorbance was measured at 600 nm on a plate reader (FLUOstar OPTIMA, BMG LabTech). All samples were in triplicate. The IC50 values were determined from dose-response curves by nonlinear regression using PRISM v5.00 (GraphPad Software Inc, La Jolla, Calif., USA).
# (§2) The in vitro cytotoxicity of 1-20 were evaluated by MTT assays in a panel of prostate cancer cell lines, including LNCaP, MDA PCa 2b, 22Rv1, C4-2B and PC-3.
# PC-3 cells = experiment: MTT cell growth inhibition, PC-3
# Description: as §1, §2
# [1] = read-out: IC50 (μM) C4-2B, Table 1, 72 h
# [2] = read-out: IC50 (μM) 22Rv1, Table 1, 72 h
# [3] = read-out: IC50 (μM) LNCaP, Table 1, 72 h
# [4] = read-out: IC50 (μM) PC-3, Table 1, 72 h, maximum tested concentration 50 μM
# [5] = read-out: Cellular IC50 (μM) C4-2B, Table 9
# [6] = read-out: Cellular IC50 (μM) 22Rv1, Table 9
# [7] = read-out: Cellular IC50 (μM) LNCaP, Table 9
# [8] = read-out: Cellular IC50 (μM) PC-3, Table 9
# [9] = read-out: Cellular IC50 (μM) C4-2B, Table 8
# [10] = read-out: Cellular IC50 (μM) 22Rv1, Table 8
# [11] = read-out: Cellular IC50 (μM) LNCaP, Table 8
# [12] = read-out: Cellular IC50 (μM) PC3, Table 8
SMILES,IC50 (C4-2B cells; [5]),IC50 (22Rv1 cells; [6]),IC50 (LNCaP cells; [7]),IC50 (PC-3 cells; [8]),IC50 (22Rv1 cells; [10]),IC50 (LNCaP cells; [11]),IC50 (PC-3 cells; [12]),other results
CC1=C(/C=C/C(=O)/C=C(O)/C=C/c2ccc(O)cc2)C(C)(C)CCC1 [Compound 5],–,–,–,–,–,–,–,IC50 (C4-2B cells; [1]): 5.7 µM; IC50 (22Rv1 cells; [2]): 12.6 µM; IC50 (LNCaP cells; [3]): 18.6 µM; IC50 (PC-3 cells; [4]): 50.6 µM
CC1(C)CCC(O)C=C1/C=C/C(=O)/C=C/c1cc2ccccc2s1 (centres unmarked) [Compound B93],9.9 µM,17.6 µM,12.9 µM,23.8 µM,–,–,–,–
COc1ccccc1/C=C/C(=O)/C=C/C1=C(C)C(O)CCC1(C)C (centres unmarked) [Compound B65],–,–,–,–,4.6 µM,1.9 µM,7.1 µM,IC50 (C4-2B cells; [9]): 2.6 µM
COc1ccc(/C=C/C(=O)/C=C/C2=C(C)C(O)CCC2(C)C)cc1O (centres unmarked) [Compound B69],–,–,–,–,19.1 µM,12.3 µM,53.9 µM,IC50 (C4-2B cells; [9]): 12 µM
CC1(C)CCC(O)C=C1/C=C/C(=O)/C=C/c1ccc2c(c1)CCO2 (centres unmarked) [Compound B79],5.6 µM,10.4 µM,4.7 µM,14.8 µM,–,–,–,–
COc1cc(OC)c(OC)cc1/C=C/C(=O)/C=C/C1=C(C)C(O)CCC1(C)C (centres unmarked) [Compound B73],–,–,–,–,5.4 µM,3.7 µM,9.5 µM,IC50 (C4-2B cells; [9]): 3.2 µM
CC1(C)CCC(O)C=C1/C=C/C(=O)/C=C/c1c[nH]c2ccc(Br)cc12 (centres unmarked) [Compound B85],4.8 µM,4 µM,2.2 µM,5.8 µM,–,–,–,–
COc1ccc(/C=C/C(O)=C/C(=O)/C=C/C2=C(C)CCCC2(C)C)cn1 [Compound 8],–,–,–,–,–,–,–,IC50 (LNCaP cells; [3]): 25.1 µM; IC50 (PC-3 cells; [4]): 52.2 µM
CC1=C(/C=C/C(=O)/C=C/c2cccc(OC(F)(F)C(F)F)c2)C(C)(C)CCC1O (centres unmarked) [Compound B47],–,–,–,–,1.8 µM,1.6 µM,4.6 µM,–
CC1(C)CCC(O)C=C1/C=C/C(=O)/C=C/c1c[nH]c2ccccc12 (centres unmarked) [Compound B81],2.3 µM,9.1 µM,4.6 µM,15.2 µM,–,–,–,–
CC1=C(/C=C/C(=O)/C=C/c2ccc(N3CCOCC3)cc2)C(C)(C)CCC1O (centres unmarked) [Compound B60],–,–,–,–,–,3.9 µM,16 µM,–
CCn1c2ccccc2c2cc(/C=C(\C(=O)/C=C/C3=C(C)CCCC3(C)C)C(=O)/C=C/c3ccc4c(c3)c3ccccc3n4CC)ccc21 [Compound 18],–,–,–,–,–,–,–,"IC50 (C4-2B cells; read-out: Cellular IC50 (μM) C4-2B, Table 2, 72 h): 28.5 µM; IC50 (22Rv1 cells; read-out: Cellular IC50 (μM) 22Rv1, Table 2, 72 h): 31.6 µM; IC50 (LNCaP cells; read-out: Cellular IC50 (μM) LNCaP, Table 2, 72 h): 11.8 µM; Cellular IC50 (μM) PC-3 (PC-3 cells; Table 2, 72 h, max tested 50 μM (β-ionone 150 μM)): Inactive^c"
COc1cc(/C=C/C(O)=C/C(=O)/C=C/C2=C(C)CCCC2(C)C)cc(OC)c1OC [Compound 7],–,–,–,–,–,–,–,IC50 (C4-2B cells; [1]): 11.9 µM; IC50 (22Rv1 cells; [2]): 17.1 µM; IC50 (LNCaP cells; [3]): 21.4 µM; IC50 (PC-3 cells; [4]): > 50 µM
CCOc1ccc(/C=C/C(O)=C/C(=O)/C=C/C2=C(C)CCCC2(C)C)cc1OCC [Compound 4],–,–,–,–,–,–,–,IC50 (C4-2B cells; [1]): 22.6 µM; IC50 (LNCaP cells; [3]): 30 µM; IC50 (PC-3 cells; [4]): 53.3 µM
CCOC(OCC)c1ccc(/C=C/C(=O)/C=C/C2=C(C)C(O)CCC2(C)C)cc1 (centres unmarked) [Compound B61],–,–,–,–,2.1 µM,1.8 µM,3.7 µM,IC50 (C4-2B cells; [9]): 1.7 µM
Cn1cc(/C=C/C(=O)/C=C/C2=CC(O)CCC2(C)C)c2ccccc21 (centres unmarked) [Compound B88],11.8 µM,21 µM,9.4 µM,54.9 µM,–,–,–,–
CC1=C(/C=C/C(=O)/C=C/c2ccc(N(C)C)cc2)C(C)(C)CCC1O (centres unmarked) [Compound B63],–,–,–,–,42 µM,8.8 µM,13 µM,–
CC1(C)CCC(O)C=C1/C=C/C(=O)/C=C/c1ccc2ccccc2n1 (centres unmarked) [Compound B94],1.5 µM,2.7 µM,2 µM,5.5 µM,–,–,–,–
COc1ccc(/C=C/C(=O)/C=C/C2=C(C)C(O)CCC2(C)C)cc1OC (centres unmarked) [Compound B70],–,–,–,–,8.2 µM,2.1 µM,6.8 µM,–
